Test results taken from the METLIN SMRT retention time set (Domingo-Almenara et al. 2019).

Assay: gradient 5% acetonitrile 3 min, to 50% in 2 min, to 85% in 15 min, held 3 min, 100 µL/min
Conditions: column: Zorbax Extend-C18 2.1 x 50 mm; eluents: water / acetonitrile, 0.1% formic acid
How it was run: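 Pure standards were run in mixtures of ~100 molecules by HPLC coupled to a quadrupole time-of-flight mass spectrometer. The column was a Zorbax Extend-C18 (2.1 × 50 mm, 1.8 μm) at 100 μL/min, with water and acetonitrile each containing 0.1% formic acid, in positive and negative ionization mode. Dead and dwell volumes were 40 μL and 900 μL. Retention time was taken from computationally picked adduct peaks, each manually inspected, with data collected over 3 months.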

Row | SMILES | RP-LC retention time
1 | O=C1CC(C(=O)N2CCc3ccccc32)CN1CCc1c[nH]c2ccc(F)cc12 (configuration not stated) | 1270 s
2 | CCN1C(=O)c2cc(C(=O)NCCCc3ccccc3)nn2CC1(C)C(=O)NC1CCCC1 (configuration not stated) | 845 s
3 | CC(CNC(=O)Cn1c(=O)n(C(C)C)c2ccc(S(=O)(=O)N3CCCC3)cc21)c1ccccc1 (configuration not stated) | 905 s
4 | NC(=O)c1cccc(-c2cc(Nc3ccc(OC(F)(F)F)cc3)ncn2)c1 | 765 s
5 | CCOC(=O)N1CCN(CC(O)COc2ccc(Cl)cc2Cl)CC1 (configuration not stated) | 589 s
6 | CCOc1ccc(N2CCCCn3c2nc2c3c(=O)n(CCC(C)C)c(=O)n2C)cc1 | 1150 s
7 | O=C(c1ccc(Cn2c(=O)c3cccn3c3cccnc32)o1)N1CCN(c2ccccn2)CC1 | 615 s
8 | COc1ccc(Cl)cc1NC(=O)C(=O)NCC1(O)CCOCC1 | 706 s
9 | CCc1nc(OCC(=O)Nc2ccc(Br)cc2F)c2ccccc2n1 | 910 s
10 | Cn1nccc1C(=O)N1CCCC1c1cccc(F)c1 (configuration not stated) | 758 s
11 | CN(C)C(=O)c1n[nH]c2c1CN(C(=O)c1cc(F)cc(F)c1)CC2 | 635 s
12 | CCOC(=O)c1cccc(Nc2c(-c3ccc(OC)c(OC)c3)nc3cnccn23)c1 | 811 s
13 | COc1ccccc1CC(=O)N1CCCn2nc(-c3ccc(Cl)cc3)cc2C1 | 1010 s
14 | Cc1ccc(-c2nc3ccc(Cl)cn3c2Nc2ccccc2C)cc1 | 904 s
15 | Fc1ccc(OCc2cn(C3CN(Cc4ccc(F)cc4F)C3)nn2)cc1 | 703 s
16 | CCN1C(=O)NC(c2ccccc2C(F)(F)F)C2=C1CN(CCC(=O)NC1CC1)C2=O (configuration not stated) | 605 s
17 | COc1ccc(-n2c(=O)n(C)c(=O)c3cc(C(=O)Nc4cc(F)ccc4C)cnc32)cc1 | 893 s
18 | CCOC(=O)c1[nH]c(C)c(CCC(=O)N2CCC(C(=O)NCc3ccc(SC)cc3)CC2)c1C | 815 s
19 | Cc1ccc(-c2cn3c(n2)N(C(=O)c2nc4ncccn4n2)CCC3)cc1 | 611 s
20 | O=C(Cc1noc2ccccc12)NCc1cc(-c2ccc(F)cc2F)on1 | 818 s
21 | OCC1CN(c2ncccn2)CC12CCN(Cc1c[nH]c3ccccc13)CC2 (configuration not stated) | 579 s
22 | Cc1ccccc1CSc1nnc(-c2ccccc2Cl)o1 | 1180 s

Row | SMILES | RP-LC retention time
23 | COc1ccc(CCNC(=O)Cn2nc3n(c2=O)CCCC3)cc1OC | 613 s
24 | O=S(=O)(c1ccc(F)cc1Cl)N1CCCn2nc(-c3cccnc3)cc2C1 | 687 s
25 | CC(C)S(=O)(=O)c1ccc(CC(=O)N(Cc2cccs2)Cc2cccn2C)cc1 | 877 s
26 | Cc1ccccc1NC(=O)C1CCCN(S(=O)(=O)c2cc(-c3noc(C4CCC4)n3)cs2)C1 (configuration not stated) | 1130 s
27 | O=S(=O)(NCc1cccs1)c1ccc(Cl)c(-c2nnc(-c3ccccc3)o2)c1 | 1020 s
28 | CCc1ccc2nc(NC3=NCN(CCCOC)CN3)nc(C)c2c1 | 694 s
29 | Cn1nc(-c2nnc(-c3ccccc3Cl)o2)c2c1CCN(C(=O)c1ccc(F)c(F)c1)C2 | 877 s
30 | Cc1nc([C@H]2CCN(Cc3cc(Cl)ccc3F)C[C@H]2N(C)C)n[nH]1 | 567 s
31 | O=C(Nc1ccc2c(c1)OCCO2)C1CCN(c2cc(N3CCCC3)ncn2)CC1 | 630 s
32 | O=C(c1csc(N2CCN(c3ccc(Cl)cc3)CC2)n1)N1CCOCC1 | 942 s
33 | COc1cccc(CN2CCC3(CC2)CC(O)CCO3)n1 (configuration not stated) | 572 s
34 | COc1ccc(NC(=O)C2CCN(C(=O)C3Sc4ccccc4NC3=O)CC2)cc1 (configuration not stated) | 729 s
35 | CCn1ccc2cc(S(=O)(=O)N3CCCC(C(=O)NCCCN4CCCCC4)C3)ccc21 (configuration not stated) | 676 s
36 | Cc1ccc2[nH]c(=O)c(CCC(=O)N3CCCN(c4ncccn4)CC3)cc2c1 | 654 s
37 | CN(Cc1ccccc1)C(=O)CSc1nnc(-c2ccc(Cl)cc2)o1 | 1030 s
38 | CC(C)CNC(=O)c1ccc(CN2CCN(Cc3ccc(F)cc3)C(=O)C2=O)cc1 | 732 s
39 | CCCNC(=O)C1CCN(c2nc3ccc(-c4cncnc4)nc3s2)CC1 | 719 s
40 | O=C(Cn1ccc2ccc(N3CCOCC3)nc21)NCc1ccc(F)cc1F | 870 s
41 | COc1ccc(-c2csc(NC(=O)c3ccc(C)o3)n2)cc1 | 962 s
42 | COc1cccc(-c2nc3sc(C(=O)N4CCOCC4)c(C)n3c2NC(C)(C)C)c1 | 795 s
43 | Cc1nn(-c2nc(-c3ccc(Cl)cc3)cs2)c(C)c1CC(=O)N1CCCCC1C (configuration not stated) | 1310 s
44 | Cn1nc2n(c1=O)CCN(S(=O)(=O)Cc1ccccc1)CC2 | 659 s

Row | SMILES | RP-LC retention time
45 | Cc1ccc(Cn2c(=O)n(CCNC(=O)c3ccc(C)s3)c3ncccc32)cc1 | 840 s
46 | COC(=O)c1ccc(-c2nc3cnccn3c2Nc2ccc(C(C)C)cc2)cc1 | 1070 s
47 | Cc1nccn1CC(=O)N1CCCC(OCc2nc(C(C)C)no2)C1 (configuration not stated) | 596 s
48 | COc1cccc(OC)c1OCCNCC1COc2ccccc2O1 (configuration not stated) | 767 s
49 | CCOC(=O)CNC(=O)N1CCN(c2ccc(=O)n(-c3ccc(C)cc3)n2)CC1 | 683 s
50 | CCn1c(=O)c2c(cc(C)n2C)n(CC(=O)Nc2cc(Cl)ccc2C)c1=O | 810 s
51 | CCS(=O)(=O)N1CC(=O)N(c2cc(C)ccc2C)C(C)(C(=O)NC2CCCC2)C1 (configuration not stated) | 834 s
52 | Cc1cccc(N(C)C(=O)C(C)n2cnc3nc4c(cc3c2=O)CCCC4)c1 (configuration not stated) | 762 s
53 | O=C(c1cccnc1)N1CCN(c2ccccc2Cl)CC1 | 826 s
54 | COc1ccccc1NC(=O)N1CCC(n2cnc3c(Cl)cccc3c2=O)CC1 | 830 s
55 | Cc1c(Cl)cccc1NC(=O)C(C)n1cnc2nc3c(cc2c1=O)CCCC3 (configuration not stated) | 805 s
56 | COc1ncccc1CNC(=O)CCc1c(C)nn(C)c1C | 580 s
57 | Cc1cccn2c(Nc3ccc4c(c3)OCCO4)c(-c3ccc(O)cc3)nc12 | 642 s
58 | CCOc1ccc(-c2noc(CN3C(=O)COc4ccc(S(=O)(=O)CC)cc43)n2)cc1OC | 873 s
59 | Cn1cccc1C(=O)N1C[C@@H]2C[C@H]1C[C@@H]2NC(=O)c1cccs1 | 700 s
60 | CCOC(=O)c1noc2ncnc(N3CCCCCC3)c12 | 954 s
61 | Cc1ccc(N2C(=O)C3N=NN(Cc4nc(-c5ccccc5Br)no4)C3C2=O)cc1F (configuration not stated) | 1010 s
62 | CC(C)Cc1nnc(C(=O)Nc2cccc(C(=O)NCCc3c[nH]c4ccccc34)c2)s1 | 955 s
63 | O=C(NCc1cccc(Cl)c1)c1ccc(CN2CCN(C3CCCC3)C(=O)C2=O)cc1 | 785 s
64 | Cn1cc(CCN2CCN(S(=O)(=O)c3ccc(Cl)cc3)CC2)c2cccnc21 | 645 s
65 | CCCNC(=O)C1CCCN(c2ccc(SCC(=O)Nc3ccc(F)cc3)nn2)C1 (configuration not stated) | 668 s
66 | Cc1ccc(-n2nc3c(N4CCCC(C(=O)NCCN5CCN(C)CC5)C4)nnc(C)c3c2C)cc1 (configuration not stated) | 567 s

Row | SMILES | RP-LC retention time
67 | Cc1nc2cccnc2n1CC1CCCN(C(=O)Nc2ccc3c(c2)OCCO3)C1 (configuration not stated) | 614 s
68 | COc1ccc(NC(=O)C2CCN(C(=O)C3Sc4ccccc4NC3=O)CC2)c(OC)c1 (configuration not stated) | 754 s
69 | O=S(=O)(Nc1cccc(C(F)(F)F)c1)c1ccc2c(c1)-c1oncc1CO2 | 998 s
70 | COC(=O)c1ncn2c1C(=O)N(c1cc(C)cc(C)c1)C(C)(C(=O)NCc1ccccc1)C2 (configuration not stated) | 747 s
71 | CCN1CCCn2cc(S(=O)(=O)Nc3ccc(F)cc3)cc2C1=O | 721 s
72 | CCOC(=O)c1sc(NC(=O)C(CC)Sc2nc(C)cc(C)n2)nc1C (configuration not stated) | 1080 s
73 | CCCCC(=O)Nc1nc(-c2ccc3c(c2)N(CC)C(=O)CO3)c(C)s1 | 982 s
74 | Cc1ccc(-c2cc3c(N4CCCC(C(=O)NC5CC5)C4)nccn3n2)c(C)c1 (configuration not stated) | 782 s
75 | CC1Cc2ccccc2N1C(=O)CCC(=O)N1CCN(c2cc(=O)n(C(C)C)c(=O)n2C(C)C)CC1 (configuration not stated) | 890 s
76 | CCC(=O)N(C1CCOCC1)C1CCN(Cc2cc(F)c(F)c(F)c2)CC1 | 625 s
77 | COc1ccc(NS(=O)(=O)c2cc(-c3noc(C(=O)N4CCCC4)n3)sc2C)cc1OC | 842 s
78 | O=C(NCCc1ccccn1)C1CCN(c2cnn(Cc3ccccc3)c(=O)c2)CC1 | 594 s
79 | COC(=O)c1ccccc1Nc1c(-c2ccccn2)nc2cnccn12 | 816 s
80 | CCOC(=O)C1CCN(C(=O)CCC(=O)N2CCCn3nc(-c4cn(C)c5ccccc45)cc32)CC1 | 798 s
81 | COc1ccc(-c2c(NC(=O)c3ccco3)oc3c(C)cccc3c2=O)cc1OC | 747 s
82 | CCCn1cnc2cc(CNC(=O)Cc3ccsc3)ccc21 | 619 s
83 | COc1ccc(-c2ncc3c(n2)CCN(S(=O)(=O)c2ccc(OC)c(Cl)c2)C3)cc1 | 1080 s
84 | CCOC(=O)c1ccc(NC(=O)Cn2nc3n(c2=O)CCCC3)cc1 | 676 s
85 | CCOC(=O)c1[nH]c(C)c(CCC(=O)N2CCC(C(=O)NCc3ccc(OC)cc3OC)CC2)c1C | 799 s
86 | CCn1c(=O)oc2cc(-c3noc(-c4ccc(C(F)(F)F)cc4)n3)ccc21 | 1220 s
87 | CC(=O)c1cccc(OC(=O)c2cc3c(C)nn(-c4ccccc4)c3s2)c1 | 1310 s
